Measured values reported in patent US9981928B2, “Aryl sulfide derivatives and aryl sulfoxide derivatives as acaricides and insecticides” (BAYER CROPSCIENCE AKTIENGESELLSCHAFT, priority 2013, dated 2018).
Where “and” joins values, the source holds several entries; their conditions need not be identical. Equal entries are not always repeated. Where two headings read alike, the source gives them in different places.

How the values were obtained:
[1] = log P determination by HPLC on reversed-phase columns (C 18), analogously to OECD Guideline 117; format: physicochemical; conditions: for logP (HCOOH): LC-MS in the acidic range, pH 2.7, 0.1% aqueous formic acid / acetonitrile; for logP (HCOOH) / logP (neutral): HPLC reversed-phase C 18; for logP (neutral): LC-MS in the neutral range, pH 7.8, 0.001 molar aqueous ammonium hydrogencarbonate / acetonitrile; for chromatographic logP: reversed-phase C18 HPLC column
Description: The log P values were determined analogously to OECD Guideline 117 (EC Directive 92/69/EEC) by HPLC (high-performance liquid chromatography) using reversed-phase columns (C 18), by the following methods:
[a] The LC-MS determination in the acidic range was effected at pH 2.7 with 0.1% aqueous formic acid and acetonitrile (contains 0.1% formic acid) as eluents; linear gradient from 10% acetonitrile to 95% acetonitrile. log P^[a] is also referred to as log P(HCOOH). [b] LC-MS determination in the neutral range was effected at pH 7.8 with 0.001 molar aqueous ammonium hydrogencarbonate solution and acetonitrile as eluents; linear gradient from 10% acetonitrile to 95% acetonitrile. log P^[…] is also referred to as log P(neutral).

[2] = tested on: greenhouse red spider mite (Tetranychus urticae); experiment: Tetranychus urticae spray test, OP-resistant (TETRUR), bean leaf disks; format: in vivo; conditions: for pest or weed control at 500 g/ha: Tetranychus urticae, foliar, 144 h, read-out: efficacy in %
Description: Tetranychus urticae—Spray Test, OP-Resistant (TETRUR)
Solvent: 78.0 parts by weight of acetone
• 1.5 parts by weight of dimethylformamide Emulsifier: alkylaryl polyglycol ether
To produce a suitable preparation of active compound, 1 part by weight of active compound is dissolved using the stated parts by weight of solvent and made up with water containing an emulsifier concentration of 1000 ppm until the desired concentration is attained. To produce further test concentrations, the preparation is diluted with emulsifier-containing water.
disks of bean leaves (Phaseolus vulgaris) infested with all stages of the greenhouse red spider mite (Tetranychus urticae) are sprayed with an active compound preparation of the desired concentration.
After 6 days, the efficacy in % is determined. 100% means that all the spider mites have been killed; 0% means that none of the spider mites have been killed.

[3] = bean leaf disks, application rate 500 g/ha, after 6 days
[4] = acidic range, pH 2.7, 0.1% aqueous formic acid and acetonitrile, read-out: log P[a] / log P(HCOOH)
[5] = neutral range, pH 7.8, 0.001 molar aqueous ammonium hydrogencarbonate and acetonitrile, read-out: log P[b] / log P(neutral)
[6] = bean leaf disks, application rate 100 g/ha, after 6 days

Row | Compound | logP (HCOOH) [1] | efficacy in % [2, 3] | logP (neutral) [1] | other results
1 | Cc1cc(C)c([S+]([O-])CC(F)(F)F)cc1N1C(=O)C(=O)N(CC(F)(F)F)C1=S (stereo not shown) [Example 188] | 3.18 | 90% |  | 
2 | CCn1c(=O)n(CC)n(-c2ccc(C)c([S+]([O-])CC(F)(F)F)c2)c1=O (stereo not shown) [Example 138] | 2.20 | 90% | 2.19 | 
3 | Cc1cc(F)c(N2CCCC2=NCC(F)(F)F)cc1[S+]([O-])CC(F)(F)F (stereo not shown) [Example 3, 2,2,2-Trifluoro-N-(1-{2-fluoro-4-methyl-5-[(2,2,2-trifluoroethyl)sulfinyl]phenyl}pyrrolidin-2-ylidene)ethanamine] |  |  |  | chromatographic logP [1, 4]: 1.02; chromatographic logP [1, 5]: 2.88; pest or weed control at 500 g/ha [2, 3]: 90%
4 | Cc1cc(F)c(N2CCCC2=NCC(F)(F)F)cc1SCC(F)(F)F [Example 6, 2,2,2-Trifluoro-N-(1-[2-fluoro-4-methyl-5-[(2,2,2-trifluoroethyl)sulfanyl]phenyl]pyrrolidin-2-ylidene)ethanamine] |  |  |  | chromatographic logP [1, 4]: 1.68; chromatographic logP [1, 5]: 4.24; pest or weed control at 500 g/ha [2, 3]: 90%
5 | Cc1cc(F)c(-n2c(=O)n(CC(F)F)c(=O)n2CC(F)(F)F)cc1SCC(F)(F)F [Example 156] | 3.44 | 90% | 3.51 | 
6 | Cc1cc(F)c(N2C(=O)C(C)(C)C(=O)N2c2ccccc2)cc1SCC(F)(F)F [Example 173] | 3.64 | 90% | 3.58 | 
7 | Cc1cc(C)c(N2CCNC2=O)cc1SCC(F)(F)F [Example 1, 1-{2,4-Dimethyl-5-[(2,2,2-trifluoroethyl)sulfanyl]phenyl}imidazolidin-2-one] |  |  |  | chromatographic logP [1, 4]: 2.43; chromatographic logP [1, 5]: 2.39; pest or weed control at 500 g/ha [2]: 90%
8 | Cc1ccc(-n2c(=O)n(C)c(=O)n2-c2ccc(C)c(SCC(F)(F)F)c2)cc1SCC(F)(F)F [Example 56] | 4.34 | 90% | 4.05 | 
9 | Cc1cc(F)c(N2C(=O)C(=O)N(C(C)(C)C)C2=S)cc1SCC(F)(F)F [Example 193] | 4.50 | 100% and 90% | 4.42 | 
10 | Cc1cc(F)c(N2C(=O)CSC2=NCC(C)(C)C)cc1[S+]([O-])CC(F)(F)F (racemic) [Example 114] | 3.66 | 90% | 3.63 | 
11 | C=CCN1CC(=O)N(c2cc([S+]([O-])CC(F)(F)F)c(C)cc2F)C1=O (racemic) [Example 201] | 2.02 | 100% | 1.99 | 
12 | C=CCn1c(=O)n(C)c(=O)n1-c1ccc(C)c(SCC(F)(F)F)c1 [Example 58] | 3.03 | 100% | 2.88 | 
13 | Cc1cc(F)c(-n2c(=O)n(C(C)C)c(=O)n2C(C)(C)C)cc1SCC(F)(F)F [Example 143] |  | 100% | 4.56 | 
14 | Cn1c(=O)n(C2CC2)c(=O)n1-c1ccc(C#N)c([S+]([O-])CC(F)(F)F)c1 (stereo not shown) [Example 43] | 1.93 | 90% | 1.90 | 
15 | Cc1ccc(-n2c(=O)n(C3CC3)c(=O)n2C(C)C)cc1SCC(F)(F)F [Example 63] | 3.65 | 90% | 3.57 | 
16 | Cc1ccc(-n2c(=O)n(C)c(=O)n2C(C)C)cc1SCC(F)(F)F [Example 61] | 3.33 | 90% | 3.27 | 
17 | CCCn1c(=O)n(C2CC2)c(=O)n1-c1cc([S+]([O-])CC(F)(F)F)c(C)cc1F (stereo not shown) [Example 172] | 2.46 | 90% | 2.42 | 

Row | Compound | logP (HCOOH) [1] | efficacy in % [2, 3] | logP (neutral) [1] | other results
18 | Cc1cc(F)c(N2C(=O)N(C3CC3)C(=O)C2C)cc1[S+]([O-])CC(F)(F)F (stereo not shown) [Example 215] | 2.15 | 100% |  | 
19 | Cc1cc(C)c(N2C(=O)CSC2=NC2CC2)cc1SCC(F)(F)F [Example 112] | 3.65 |  | 3.65 | efficacy in % [2, 6]: 100%
20 | Cn1c(=O)n(C2CC2)c(=O)n1-c1ccc(Br)c(SCC(F)(F)F)c1 [Example 46] | 3.11 | 100% | 3.05 | 
21 | C=CCn1c(=O)n(-c2cc(SCC(F)(F)F)c(C)cc2F)c(=O)n1C [Example 125] | 2.91 | 100% |  | 
22 | Cc1cc(F)c(N2C(=O)C(C)(C)C(=O)N2Cc2ccccc2)cc1SCC(F)(F)F [Example 178] | 3.80 | 100% | 3.76 | 
23 | CCn1c(=O)n(-c2cc(SCC(F)(F)F)c(C)cc2F)c(=O)n1C [Example 122, 1-Ethyl-4-{2-fluoro-4-methyl-5-[(2,2,2-trifluoroethyl)sulfanyl]phenyl}-2-methyl-1,2,4-triazolidine-3,5-dione] |  |  |  | chromatographic logP [1, 4]: 2.71; pest or weed control at 500 g/ha [2, 3]: 90%
24 | CCn1c(=O)n(C(C)(C)C)c(=O)n1-c1cc(SCC(F)(F)F)c(C)cc1F [Example 99] | 4.21 | 90% | 4.16 | 
25 | CCn1c(=O)n(C)n(-c2ccc(C)c([S+]([O-])CC(F)(F)F)c2)c1=O (stereo not shown) [Example 89] | 1.96 | 100% | 1.91 | 
26 | Cc1cc(F)c(N2C(=O)C(=O)N(CC(F)F)C2=O)cc1SCC(F)(F)F [Example 101, 1-(2,2-Difluoroethyl)-3-[2-fluoro-4-methyl-5-[(2,2,2-trifluoroethyl)sulfanyl]phenyl]imidazolidine-2,4,5-trione] |  |  |  | chromatographic logP [1, 4]: 3.22; chromatographic logP [1, 5]: 1.73; pest or weed control at 500 g/ha [2, 3]: 100%
27 | Cn1c(=O)n(C)n(-c2ccc(Cl)c(SCC(F)(F)F)c2)c1=O [Example 31] | 2.72 | 90% | 2.69 | 
28 | Cc1cc(F)c(-n2c(=O)n(CC(F)F)c(=O)n2CC(F)(F)F)cc1[S+]([O-])CC(F)(F)F (stereo not shown) [Example 168] | 2.60 | 90% | 2.58 | 
29 | CCC1(CC)C(=O)N(C)N(c2cc([S+]([O-])CC(F)(F)F)c(C)cc2F)C1=O (stereo not shown) [Example 176] | 2.37 | 100% | 2.31 | 
30 | CCCn1c(=O)n(C)n(-c2cc(SCC(F)(F)F)c(C)cc2F)c1=O [Example 160] | 3.28 |  | 3.22 | efficacy in % [2, 6]: 100%
31 | CCn1c(=O)n(C)c(=O)n1-c1cc(SCC(F)(F)F)c(C)cc1F [Example 97] | 2.91 | 100% | 2.83 | 
32 | Cn1c(=O)n(C2CC2)c(=O)n1-c1ccc(C(F)(F)F)c(SCC(F)(F)F)c1 [Example 53] | 3.33 | 100% | 3.23 | 
33 | Cc1cc(F)c(N2C(=O)C(=O)N(CC(F)F)C2=O)cc1[S+]([O-])CC(F)(F)F (stereo not shown) [Example 103, 1-(2,2-Difluoroethyl)-3-{2-fluoro-4-methyl-5-[(2,2,2-trifluoroethyl)sulfinyl]phenyl}imidazolidine-2,4,5-trione] |  |  |  | chromatographic logP [1, 4]: 2.32; chromatographic logP [1, 5]: 0.87
34 | Cc1cc(F)c(N2C(=O)OCC2C)cc1[S+]([O-])CC(F)(F)F (stereo not shown) [Example 107, 3-[2-Fluoro-4-methyl-5-(2,2,2-trifluoroethylsulfinyl)phenyl]-4-methyloxazolidin-2-one] |  |  |  | chromatographic logP [1, 4]: 1.79
